PMC12102759 (Protein Science : A Publication of the Protein Society, 2025)

Tested on: G3BP1 NFT2
Assay type: binding, human
Conditions: library DMS-CoV; bait G3BP1 NFT2; prey N; peptide APRITFGGPSDSTGSN; listed as aa = residue placed at this position; column sums to 1

Sequence | DMS PSSM value, G (position 8) | DMS PSSM value, R (position 3) | DMS PSSM value, G (position 7) | DMS PSSM value, P (position 9) | DMS PSSM value, P (position 2) | DMS PSSM value, D (position 11) | DMS PSSM value, A (position 1) | DMS PSSM value, S (position 12) | DMS PSSM value, S (position 10) | DMS PSSM value, T (position 13)
APRITFGGPSDSTGSN G8R (APRITFGRPSDSTGSN) | 0 | – | – | – | – | – | – | – | – | –
APRITFGGPSDSTGSN R3F (APFITFGGPSDSTGSN) | – | 0.003092 | – | – | – | – | – | – | – | –
APRITFGGPSDSTGSN G7M (APRITFMGPSDSTGSN) | – | – | 0 | – | – | – | – | – | – | –
APRITFGGPSDSTGSN P9I (APRITFGGISDSTGSN) | – | – | – | 0.01105 | – | – | – | – | – | –
APRITFGGPSDSTGSN P2E (AERITFGGPSDSTGSN) | – | – | – | – | 0.7321 | – | – | – | – | –
APRITFGGPSDSTGSN D11P (APRITFGGPSPSTGSN) | – | – | – | – | – | 0.007134 | – | – | – | –
APRITFGGPSDSTGSN A1Y (YPRITFGGPSDSTGSN) | – | – | – | – | – | – | 0.04618 | – | – | –
APRITFGGPSDSTGSN R3V (APVITFGGPSDSTGSN) | – | 0.00164 | – | – | – | – | – | – | – | –
APRITFGGPSDSTGSN R3E (APEITFGGPSDSTGSN) | – | 0.01584 | – | – | – | – | – | – | – | –
APRITFGGPSDSTGSN P9M (APRITFGGMSDSTGSN) | – | – | – | 0 | – | – | – | – | – | –
APRITFGGPSDSTGSN A1R (RPRITFGGPSDSTGSN) | – | – | – | – | – | – | 0 | – | – | –
APRITFGGPSDSTGSN S12Y (APRITFGGPSDYTGSN) | – | – | – | – | – | – | – | 0.2998 | – | –
APRITFGGPSDSTGSN S10K (APRITFGGPKDSTGSN) | – | – | – | – | – | – | – | – | 0.006118 | –
APRITFGGPSDSTGSN T13D (APRITFGGPSDSDGSN) | – | – | – | – | – | – | – | – | – | 9.878e-5
APRITFGGPSDSTGSN G7S (APRITFSGPSDSTGSN) | – | – | 0 | – | – | – | – | – | – | –
APRITFGGPSDSTGSN G8E (APRITFGEPSDSTGSN) | 0.0007374 | – | – | – | – | – | – | – | – | –
APRITFGGPSDSTGSN S12D (APRITFGGPSDDTGSN) | – | – | – | – | – | – | – | 0 | – | –

Sequence | DMS PSSM value, G (position 8) | DMS PSSM value, R (position 3) | DMS PSSM value, G (position 7) | DMS PSSM value, P (position 9) | DMS PSSM value, P (position 2) | DMS PSSM value, D (position 11) | DMS PSSM value, A (position 1) | DMS PSSM value, S (position 12) | DMS PSSM value, S (position 10) | DMS PSSM value, T (position 13)
APRITFGGPSDSTGSN S10N (APRITFGGPNDSTGSN) | – | – | – | – | – | – | – | – | 0 | –
APRITFGGPSDSTGSN D11S (APRITFGGPSSSTGSN) | – | – | – | – | – | 0.01892 | – | – | – | –
APRITFGGPSDSTGSN R3G (APGITFGGPSDSTGSN) | – | 0.02417 | – | – | – | – | – | – | – | –
APRITFGGPSDSTGSN T13M (APRITFGGPSDSMGSN) | – | – | – | – | – | – | – | – | – | 0.06406
APRITFGGPSDSTGSN P2F (AFRITFGGPSDSTGSN) | – | – | – | – | 0.0008942 | – | – | – | – | –
APRITFGGPSDSTGSN D11G (APRITFGGPSGSTGSN) | – | – | – | – | – | 0 | – | – | – | –
APRITFGGPSDSTGSN G8L (APRITFGLPSDSTGSN) | 0.0001736 | – | – | – | – | – | – | – | – | –
APRITFGGPSDSTGSN T13W (APRITFGGPSDSWGSN) | – | – | – | – | – | – | – | – | – | 0
APRITFGGPSDSTGSN D11M (APRITFGGPSMSTGSN) | – | – | – | – | – | 0.4258 | – | – | – | –
APRITFGGPSDSTGSN S10W (APRITFGGPWDSTGSN) | – | – | – | – | – | – | – | – | 0 | –
APRITFGGPSDSTGSN D11A (APRITFGGPSASTGSN) | – | – | – | – | – | 0.0135 | – | – | – | –
APRITFGGPSDSTGSN T13Q (APRITFGGPSDSQGSN) | – | – | – | – | – | – | – | – | – | 0.01432
APRITFGGPSDSTGSN P9W (APRITFGGWSDSTGSN) | – | – | – | 0 | – | – | – | – | – | –
APRITFGGPSDSTGSN P2Q (AQRITFGGPSDSTGSN) | – | – | – | – | 0.0005858 | – | – | – | – | –
APRITFGGPSDSTGSN A1V (VPRITFGGPSDSTGSN) | – | – | – | – | – | – | 0.004383 | – | – | –
APRITFGGPSDSTGSN S10Q (APRITFGGPQDSTGSN) | – | – | – | – | – | – | – | – | 0.008177 | –

Same assay, conditions: library DMS-CoV; bait G3BP1 NFT2; prey N; peptide APRITFGGPSDSTGSN; listed as aa = residue placed at this position; column sums to 1

Sequence | DMS PSSM value, G (position 14) | DMS PSSM value, F (position 6) | DMS PSSM value, S (position 15) | DMS PSSM value, I (position 4)
APRITFGGPSDSTGSN G14Q (APRITFGGPSDSTQSN) | 0.3116 | – | – | –
APRITFGGPSDSTGSN F6G (APRITGGGPSDSTGSN) | – | 0 | – | –
APRITFGGPSDSTGSN S15M (APRITFGGPSDSTGMN) | – | – | 0.006693 | –
APRITFGGPSDSTGSN G14K (APRITFGGPSDSTKSN) | 0.00039 | – | – | –
APRITFGGPSDSTGSN S15R (APRITFGGPSDSTGRN) | – | – | 0 | –
APRITFGGPSDSTGSN S15E (APRITFGGPSDSTGEN) | – | – | 0.0004817 | –
APRITFGGPSDSTGSN G14D (APRITFGGPSDSTDSN) | 0.0004838 | – | – | –
APRITFGGPSDSTGSN I4H (APRHTFGGPSDSTGSN) | – | – | – | 0
APRITFGGPSDSTGSN F6Y (APRITYGGPSDSTGSN) | – | 0.004533 | – | –
APRITFGGPSDSTGSN I4Y (APRYTFGGPSDSTGSN) | – | – | – | 0
APRITFGGPSDSTGSN F6E (APRITEGGPSDSTGSN) | – | 0 | – | –

Same assay, conditions: library DMS-CoV; bait G3BP1 NFT2; prey N; peptide RNAPRITFGGPSDSTG; listed as aa = residue placed at this position; column sums to 1

Sequence | DMS PSSM value, G (position 10)
RNAPRITFGGPSDSTG G10F (RNAPRITFGFPSDSTG) | 0
